A value given as a limit tells only on which side of the number the result lay.

The target in this test is PAS domain-containing serine/threonine-protein kinase (Homo sapiens, UniProt Q96RG2). In words: Inhibition of human recombinant PASK using Ulight-peptide substrate incubated for 2 hrs by TR-FRET assay.
PAS domain-containing serine/threonine-protein kinase, sequence (Q96RG2 whole entry, the tested form may be a part): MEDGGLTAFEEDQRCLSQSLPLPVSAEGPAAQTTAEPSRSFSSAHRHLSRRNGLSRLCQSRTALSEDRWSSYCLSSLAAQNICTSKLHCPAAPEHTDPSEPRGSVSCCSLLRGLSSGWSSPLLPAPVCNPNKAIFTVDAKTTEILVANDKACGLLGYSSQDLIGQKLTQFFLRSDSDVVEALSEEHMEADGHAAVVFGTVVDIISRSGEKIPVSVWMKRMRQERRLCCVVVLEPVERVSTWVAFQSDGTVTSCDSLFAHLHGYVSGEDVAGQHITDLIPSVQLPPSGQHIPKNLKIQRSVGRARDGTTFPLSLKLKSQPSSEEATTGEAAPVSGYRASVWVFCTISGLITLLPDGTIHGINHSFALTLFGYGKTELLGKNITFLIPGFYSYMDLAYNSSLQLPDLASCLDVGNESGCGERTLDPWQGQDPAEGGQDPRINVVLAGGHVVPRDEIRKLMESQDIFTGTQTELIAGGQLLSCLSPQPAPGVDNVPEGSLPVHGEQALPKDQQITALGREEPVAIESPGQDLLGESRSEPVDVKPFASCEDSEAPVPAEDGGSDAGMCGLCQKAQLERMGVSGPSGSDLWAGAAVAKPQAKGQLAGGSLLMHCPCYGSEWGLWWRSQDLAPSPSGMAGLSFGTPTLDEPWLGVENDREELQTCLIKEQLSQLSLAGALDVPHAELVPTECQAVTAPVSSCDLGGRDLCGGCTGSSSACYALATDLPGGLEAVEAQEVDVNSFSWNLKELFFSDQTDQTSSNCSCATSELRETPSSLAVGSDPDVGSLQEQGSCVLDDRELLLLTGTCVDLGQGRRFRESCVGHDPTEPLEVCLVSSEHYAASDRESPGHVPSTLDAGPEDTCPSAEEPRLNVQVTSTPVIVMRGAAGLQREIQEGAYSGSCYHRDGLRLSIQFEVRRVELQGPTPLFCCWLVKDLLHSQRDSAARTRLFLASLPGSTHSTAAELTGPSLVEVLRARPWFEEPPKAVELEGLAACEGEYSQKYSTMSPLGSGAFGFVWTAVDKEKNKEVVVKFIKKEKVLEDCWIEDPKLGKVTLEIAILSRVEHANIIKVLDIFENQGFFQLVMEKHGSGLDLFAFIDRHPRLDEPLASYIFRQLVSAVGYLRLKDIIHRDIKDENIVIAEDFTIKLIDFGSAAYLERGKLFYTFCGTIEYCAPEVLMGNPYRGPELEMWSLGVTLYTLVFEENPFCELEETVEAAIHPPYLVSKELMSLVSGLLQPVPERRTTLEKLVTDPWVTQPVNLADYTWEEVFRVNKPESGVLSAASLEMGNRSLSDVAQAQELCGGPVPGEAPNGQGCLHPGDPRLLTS

Turning to `COc1cc(-c2cc(=O)n3nc(-c4ccc(F)cc4)nc3[nH]2)ccc1Cl`, the 50% inhibitory concentration (IC50) is not above 10 µM.

`O=c1cc(-c2ccc3[nH]nnc3c2)[nH]c2nc(-c3ccc(Cl)c(Cl)c3)nn12`: the IC50 is not above 10 µM.

The values above are taken from ChEMBL document CHEMBL3714769, “Heterocyclic compounds for the inhibition of pask” (2014).
